Test results published in article PMC5623949, “Exploiting the 2-Amino-1,3,4-thiadiazole Scaffold To Inhibit Trypanosoma brucei Pteridine Reductase in Support of Early-Stage Drug Discovery” (ACS Omega, 2017).
Like-named read-outs stand apart in the source and are kept apart here.

How the values were obtained:
TbPTR1 [1] = molecular target: T1, TbPTR1 (Trypanosoma brucei brucei, UniProt O76290); experiment: biochemical; conditions: for inhibition at 50 µM: 50 μM compound, read-out: % Inhibition TbPTR1 at 50 μM; for IC50: dose-response 0.001-100 μM
T1 construct: made in house
T1 sequence (O76290 1-268): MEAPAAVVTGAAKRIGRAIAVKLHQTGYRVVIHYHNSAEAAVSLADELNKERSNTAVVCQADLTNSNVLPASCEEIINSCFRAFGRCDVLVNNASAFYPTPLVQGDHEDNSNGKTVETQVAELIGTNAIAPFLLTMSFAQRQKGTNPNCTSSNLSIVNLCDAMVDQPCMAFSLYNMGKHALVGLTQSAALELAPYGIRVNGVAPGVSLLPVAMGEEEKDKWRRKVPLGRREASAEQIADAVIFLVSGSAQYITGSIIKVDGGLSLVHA

[2] = test system: T. b. brucei Lister 427 bloodstream forms; experiment: In vitro activity against T. brucei (HTS SYBR Green I growth inhibition assay); format: cell-based, Trypanosoma brucei brucei; conditions: for inhibition at 50 µM / EC50: Trypanosoma brucei; for inhibition at 50 µM: read-out: % Inhibition T. brucei at 50 μM; for % Antiparasitic Activity Tb brucei at 50uM: Table S1, compounds I-X
TbPTR1 [3] = molecular target: T1, TbPTR1; experiment: TbPTR1 direct enzyme inhibition assay for compounds I-X (Table S1); format: biochemical; conditions: for inhibition at 50 µM: 10 min, pH 6, 50 µM compound; for Ki: competitive inhibition mechanism assumed
Procedure: (b) PTR1 Enzyme inhibition. Compounds ICX were tested following the direct assay. The samples were incubated for
10 minutes at 30 °C, in buffer containing 50 mM Na citrate pH 3.7, TbPTR1, BH2 20 μM. (Dawson et al. Mol.
Microbiol. 2006, 61 (6), 1457–1468). Reaction start with NADPH. Compound concentrations depend on solubility and
ranged between 10C300 μM. Ki was calculated assuming a competitive inhibition mechanism.

mammalian cells = experiment: Toxicity against mammalian cells (Table S1); format: cell-based; conditions: read-out: IC50 vs mam.cells
hERG = molecular target: T2, hERG (Homo sapiens, UniProt Q12809); design: hERG inhibition liability assay
T2 construct: gene KCNH2
T2 sequence (Q12809 whole entry): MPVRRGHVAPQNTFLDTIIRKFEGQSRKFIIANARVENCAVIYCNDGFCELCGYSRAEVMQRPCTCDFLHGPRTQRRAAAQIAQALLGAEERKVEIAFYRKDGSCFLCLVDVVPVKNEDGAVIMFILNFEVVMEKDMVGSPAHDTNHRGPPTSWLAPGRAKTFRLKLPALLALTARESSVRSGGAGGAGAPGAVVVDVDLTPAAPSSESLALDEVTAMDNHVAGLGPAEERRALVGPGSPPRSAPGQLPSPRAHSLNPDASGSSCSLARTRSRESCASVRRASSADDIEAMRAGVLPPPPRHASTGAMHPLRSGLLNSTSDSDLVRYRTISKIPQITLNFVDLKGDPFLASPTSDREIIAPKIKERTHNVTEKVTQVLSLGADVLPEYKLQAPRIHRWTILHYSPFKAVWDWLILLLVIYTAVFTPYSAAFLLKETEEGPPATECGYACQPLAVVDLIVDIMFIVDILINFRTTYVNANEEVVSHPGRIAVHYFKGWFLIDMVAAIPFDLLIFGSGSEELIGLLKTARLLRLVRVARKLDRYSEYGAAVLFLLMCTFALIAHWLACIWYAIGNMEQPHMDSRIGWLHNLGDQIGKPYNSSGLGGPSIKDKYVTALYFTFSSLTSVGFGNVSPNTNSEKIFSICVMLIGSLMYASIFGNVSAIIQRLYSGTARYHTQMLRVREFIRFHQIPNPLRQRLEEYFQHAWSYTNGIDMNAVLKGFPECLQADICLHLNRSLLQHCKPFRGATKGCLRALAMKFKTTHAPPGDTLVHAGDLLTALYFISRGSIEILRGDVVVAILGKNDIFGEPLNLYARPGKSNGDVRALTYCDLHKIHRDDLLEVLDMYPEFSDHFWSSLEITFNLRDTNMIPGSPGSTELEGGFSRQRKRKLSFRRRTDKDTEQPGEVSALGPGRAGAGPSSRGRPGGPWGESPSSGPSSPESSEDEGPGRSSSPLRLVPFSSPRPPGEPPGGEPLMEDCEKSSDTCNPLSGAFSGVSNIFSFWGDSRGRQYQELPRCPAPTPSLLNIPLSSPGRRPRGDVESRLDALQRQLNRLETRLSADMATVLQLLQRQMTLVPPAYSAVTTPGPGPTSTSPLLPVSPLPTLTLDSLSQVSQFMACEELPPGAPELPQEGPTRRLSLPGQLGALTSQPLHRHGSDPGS

CYP1A2 = molecular target: T3, CYP1A2 (Homo sapiens, UniProt P05177); experiment: in vitro; design: cytochrome P450 isoform inhibition liability assay
T3 sequence (P05177 1-516): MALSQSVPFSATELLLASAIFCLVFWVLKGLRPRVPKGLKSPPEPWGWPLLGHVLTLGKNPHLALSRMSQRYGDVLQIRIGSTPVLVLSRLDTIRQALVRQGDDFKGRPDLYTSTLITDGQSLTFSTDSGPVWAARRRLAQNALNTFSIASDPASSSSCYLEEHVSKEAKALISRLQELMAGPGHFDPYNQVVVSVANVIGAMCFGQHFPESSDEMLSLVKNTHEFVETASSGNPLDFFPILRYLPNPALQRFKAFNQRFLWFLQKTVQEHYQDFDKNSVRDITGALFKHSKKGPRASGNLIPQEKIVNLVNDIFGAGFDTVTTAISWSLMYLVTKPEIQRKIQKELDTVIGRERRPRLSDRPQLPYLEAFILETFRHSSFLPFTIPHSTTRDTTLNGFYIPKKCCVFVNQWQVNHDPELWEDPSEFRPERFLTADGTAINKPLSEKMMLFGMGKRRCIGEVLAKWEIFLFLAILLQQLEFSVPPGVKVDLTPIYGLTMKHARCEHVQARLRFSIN

CYP2C19 = CYP2C19 (Homo sapiens, UniProt P33261); experiment: in vitro; design: cytochrome P450 isoform inhibition liability assay
CYP2C19, sequence (P33261 whole entry, canonical isoform): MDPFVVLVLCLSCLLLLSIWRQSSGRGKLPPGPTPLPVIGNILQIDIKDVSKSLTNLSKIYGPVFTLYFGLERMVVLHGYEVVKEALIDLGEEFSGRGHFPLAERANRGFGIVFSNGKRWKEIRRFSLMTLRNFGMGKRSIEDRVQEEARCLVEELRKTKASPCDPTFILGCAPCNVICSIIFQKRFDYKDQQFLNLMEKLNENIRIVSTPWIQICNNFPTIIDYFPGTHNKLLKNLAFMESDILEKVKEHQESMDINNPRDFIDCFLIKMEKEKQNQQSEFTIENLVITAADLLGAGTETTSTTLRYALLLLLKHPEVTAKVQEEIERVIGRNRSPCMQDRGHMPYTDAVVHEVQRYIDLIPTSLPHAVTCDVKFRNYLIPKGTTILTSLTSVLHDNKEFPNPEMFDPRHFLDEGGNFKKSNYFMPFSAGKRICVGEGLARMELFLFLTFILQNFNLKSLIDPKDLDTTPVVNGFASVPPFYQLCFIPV

CYP2C9 = CYP2C9 (Homo sapiens, UniProt P11712); experiment: in vitro; design: cytochrome P450 isoform inhibition liability assay
CYP2C9, sequence (P11712 whole entry, canonical isoform): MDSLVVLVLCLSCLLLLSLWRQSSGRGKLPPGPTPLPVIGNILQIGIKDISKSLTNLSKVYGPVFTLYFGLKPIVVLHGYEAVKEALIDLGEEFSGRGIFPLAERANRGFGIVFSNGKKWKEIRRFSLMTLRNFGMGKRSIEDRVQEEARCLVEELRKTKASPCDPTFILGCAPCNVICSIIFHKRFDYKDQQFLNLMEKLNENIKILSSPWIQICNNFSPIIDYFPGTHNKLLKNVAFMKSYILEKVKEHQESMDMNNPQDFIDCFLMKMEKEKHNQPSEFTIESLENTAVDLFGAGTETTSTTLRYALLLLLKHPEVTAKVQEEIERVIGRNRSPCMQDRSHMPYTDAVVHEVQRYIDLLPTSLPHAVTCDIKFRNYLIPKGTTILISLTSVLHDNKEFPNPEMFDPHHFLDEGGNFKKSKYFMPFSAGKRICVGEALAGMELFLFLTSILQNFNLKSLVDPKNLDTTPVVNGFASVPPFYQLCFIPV

CYP2D6 = CYP2D6 (Homo sapiens, UniProt P10635); experiment: in vitro; design: cytochrome P450 isoform inhibition liability assay
CYP2D6, sequence (P10635 whole entry, canonical isoform): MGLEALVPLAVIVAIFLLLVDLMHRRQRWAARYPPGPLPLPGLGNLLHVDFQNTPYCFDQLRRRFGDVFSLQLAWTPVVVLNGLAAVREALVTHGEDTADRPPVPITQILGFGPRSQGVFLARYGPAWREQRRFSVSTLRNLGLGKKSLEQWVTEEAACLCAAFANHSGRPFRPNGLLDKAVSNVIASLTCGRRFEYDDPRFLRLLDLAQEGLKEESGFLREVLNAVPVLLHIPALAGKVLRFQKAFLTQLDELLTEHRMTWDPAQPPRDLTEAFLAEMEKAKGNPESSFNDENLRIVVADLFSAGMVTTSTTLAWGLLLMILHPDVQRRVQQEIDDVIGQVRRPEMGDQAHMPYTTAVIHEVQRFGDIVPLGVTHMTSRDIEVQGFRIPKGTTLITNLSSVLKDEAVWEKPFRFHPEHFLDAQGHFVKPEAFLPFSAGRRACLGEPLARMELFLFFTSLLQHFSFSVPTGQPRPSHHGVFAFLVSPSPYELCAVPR

CYP3A4 = CYP3A4 (Homo sapiens, UniProt P08684); experiment: in vitro; design: cytochrome P450 isoform inhibition liability assay
CYP3A4, sequence (P08684 whole entry, canonical isoform): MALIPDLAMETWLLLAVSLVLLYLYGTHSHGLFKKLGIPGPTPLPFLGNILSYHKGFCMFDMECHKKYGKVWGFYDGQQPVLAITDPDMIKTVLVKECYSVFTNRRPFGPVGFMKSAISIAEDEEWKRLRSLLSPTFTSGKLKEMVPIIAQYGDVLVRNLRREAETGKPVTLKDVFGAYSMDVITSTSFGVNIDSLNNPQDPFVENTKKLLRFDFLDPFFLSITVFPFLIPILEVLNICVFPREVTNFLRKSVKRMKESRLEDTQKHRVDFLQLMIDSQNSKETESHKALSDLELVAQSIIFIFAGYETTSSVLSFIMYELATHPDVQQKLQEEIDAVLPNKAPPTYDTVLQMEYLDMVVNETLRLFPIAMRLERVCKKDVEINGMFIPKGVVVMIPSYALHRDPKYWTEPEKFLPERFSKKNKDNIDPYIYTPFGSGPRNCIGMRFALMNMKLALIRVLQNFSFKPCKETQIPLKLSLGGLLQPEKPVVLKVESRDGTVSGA

786-O = experiment: cells; design: mitochondrial toxicity in 786-O renal carcinoma cells; conditions: Homo sapiens, 786-0; mitochondrial toxicity
in vitro [4] = experiment: in vitro; design: cytotoxicity, per cent cell growth of A549 cells; conditions: human, a549 cells; read-out: % cell growth A549 at 10uM
in vitro [5] = experiment: in vitro; design: cytotoxicity, per cent cell growth of WI-38 fibroblasts; conditions: human, wi-38 cells; read-out: % cell growth W1-38 at 10uM
[6] = test system: T. b. brucei Lister 427 bloodstream forms; experiment: T. brucei resazurin assay for MTX potentiation and folic acid supplementation; format: cell-based, Trypanosoma brucei brucei; conditions: for EC50: Trypanosoma brucei
Procedure: T. b. brucei Lister 427 bloodstream forms were grown at 37 °C and 5% CO2 in a complete HMI-9 medium, supplemented with 10% FCS and 100 UI/mL of penicillin/streptomycin. The cultures were diluted until a cell density of 2 × 10^6/mL was reached. The efficacy of compounds against T. brucei bloodstream forms was evaluated using a modified resazurin-based assay previously described.[46] The compounds were prepared from a stock solution in 10 mM DMSO and diluted in HMI-9 (supplemented or not with 1 mM folic acid, Sigma-Aldrich) to 40 μM work solution (0.4% DMSO, with the DMSO limit in the assay being 0.4%). […] The 40 μM work solution was then used to perform serial dilutions (1:2) in a 96-well plate. Upon compound addition to the test plate, the mid-log bloodstream forms were added (100 μL) in complete HMI-9 medium (supplemented or not with 1 mM folic acid) at a final cell density of 1 × 10^4/mL in a final well volume of 200 μL with a maximum DMSO concentration of 0.2%. Following incubation for 72 h at 37 °C and 5% CO2, 20 μL of 0.5 mM resazurin solution was added, and the plates were incubated further for 4 h under the same conditions. Fluorescence was measured at 540 and 620 nm excitation and emission wavelengths, respectively, using a Synergy 2 multi-mode reader (BioTek). […] This approach requires the use of both compounds at their EC50 potency in the combination, which is impossible to be detected for compound 4m having no intrinsic antiparasitic activity as a single agent at the tested concentrations. Folic acid (1 mM) was chosen on the basis of the following experiments. The stock solution of 10 mM folic acid dissolved in NaOH solution was used to perform a dose–response curve with folic acid alone to evaluate the maximum amount we could use without compromising parasite growth due to pH modification of the media. […] The IC50 values reported are the averages of the results obtained in at least two independent experiments. Pentamidine was used as the reference drug and internal control in all assays.

hDHFR = molecular target: T4, hDHFR (Homo sapiens, UniProt P00374); experiment: biochemical; design: human DHFR enzyme inhibition
T4 construct: gene DHFR
T4 sequence (P00374 1-187): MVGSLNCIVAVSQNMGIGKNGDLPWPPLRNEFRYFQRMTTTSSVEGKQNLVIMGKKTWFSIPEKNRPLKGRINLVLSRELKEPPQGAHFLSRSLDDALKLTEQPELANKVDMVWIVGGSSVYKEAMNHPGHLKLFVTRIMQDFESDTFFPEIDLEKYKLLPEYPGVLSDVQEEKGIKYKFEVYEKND
How it was run: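 hDHFR inhibition tested at a single concentration of 100 μM, expressed as percent inhibitory activity.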

[7] = test system: T. b. brucei Lister 427 bloodstream forms; design: method as in PMID 27175479, PMID 27703008, PMID 18557814; conditions: no folate supplementation; read-out: reported EC50 T. brucei with no folate supplementation; cited from earlier work
[8] = 50 μM, standard deviation within ±10% of the value

Row | SMILES | inhibition at 50 µM (TbPTR1 [1]) [%] | IC50 (TbPTR1 [1]) [µM] | inhibition at 50 µM [2, 8] [%] | inhibition at 50 µM (TbPTR1 [3]) [%] | Ki (TbPTR1 [3]) [µM] | IC50 (mammalian cells) [µM] | inhibition at 10 µM (hERG) [%] | inhibition at 10 µM (CYP1A2) [%] | inhibition at 10 µM (CYP2C19) [%] | inhibition at 10 µM (CYP2C9) [%] | inhibition at 10 µM (CYP2D6) [%] | inhibition at 10 µM (CYP3A4) [%] | inhibition at 10 µM (786-O) [%] | viability at 10 µM (in vitro [4]) [%] | viability at 10 µM (in vitro [5]) [%] | inhibition at 100 µM (hDHFR) [%] | other results
1 | Nc1nnc(CCC(=O)c2cccs2)s1 [3k] | 26 ± 0.7 | > 70 | 60.7 | 18 | 48 | > 50 | 0.1 ± 6.4 | 4.9 ± 1.4 | -3.4 ± 15.5 | -10.5 ± 2.1 | -20.6 ± 3.1 | 10.3 ± 7.8 | -5.2 ± 3.9 | 131 ± 2.8 | 92 ± 9.7 |  | 
2 | Nc1nnc(NCc2cccs2)s1 [4c] | 50.6 ± 2.6 | 112 | < 0 |  |  |  | 87.3 ± 5.7 | -3.2 ± 2.9 | -13.9 ± 18 | -7.7 ± 4.7 | 27.4 ± 5.7 | -2.6 ± 4.5 | 4.8 ± 2.9 | 142 ± 13.8 | 96.3 ± 7.6 |  | antiparasitic effect as single agent ([6]; compound alone, 4m at 50 μM): low T. brucei cell inhibitory activity
3 | COc1cccc(CNc2nnc(N)s2)c1 [4i] | 31 ± 1.3 | 56 |  |  |  |  | 108 ± 9.6 | 15.9 ± 1.1 | 45.9 ± 0.8 | 33.5 ± 1.7 | 105.2 ± 0.1 | 87.7 ± 0.4 | -15.3 ± 24.3 | 107 ± 5.8 | 129 ± 14.1 | 28 | % Inhibition T. brucei at 50 μM [2, 8]: 95.6%; EC50 ([2]; standard deviation within ±10% of the value, read-out: EC50 T. brucei): 16 µM
4 | COC(=O)C(Cc1ccccc1)Nc1nnc(N)s1 (stereo not shown) [4p, Methyl 2G((5GaminoG1,3,4GthiadiazolG2Gyl)amino)G3Gphenylpropanoate] | 3.9 ± 0.3 |  | 0.4 |  |  |  | 28.7 ± 10.5 | -1.5 ± 4.3 | -27.4 ± 13.1 | -10.9 ± 3 | 47.4 ± 3.3 | -12.5 ± 6.8 | 1.72 ± 5.2 | 126 ± 3.5 | 114 ± 12.7 | 9 | 
5 | Nc1nnc(N2CCC(Cc3ccccc3)CC2)s1 [4r, 5G(4GbenzylpiperidinG1Gyl)G1,3,4GthiadiazolG2Gamine] | 8.4 ± 0.3 |  | 1.8 |  |  |  | 46.5 ± 4.7 | 20 ± 1.2 | 89.4 ± 2 | 45.9 ± 3.3 | 82.7 ± 0.6 | 21.7 ± 4.3 | -7.3 ± 10.5 | 111 ± 6.5 | 92.7 ± 15.7 | 13 | 
6 | Nc1nnc(-c2cnccc2N)s1 [III] |  |  |  | 15 | 53 | > 50 |  |  |  |  |  |  |  |  |  |  | EC50 T. b. brucei (compounds I-IV) ([2]; Table S1): not detectable
7 | Nc1nnc(-c2ccc3[nH]nnc3c2)s1 [IV] |  |  |  | 10 | 88 | 51.5 |  |  |  |  |  |  |  |  |  |  | % Antiparasitic Activity Tb brucei at 50uM [2]: 67%; EC50 ([2]; Table S1, read-out: EC50 T. b. brucei (compounds I-IV)): 170 µM
8 | Nc1nnc(CCCl)s1 [I] |  |  |  |  |  | 4.2 ± 0.4 |  |  |  |  |  |  |  |  |  |  | % Antiparasitic Activity Tb brucei at 50uM [2]: 90%
9 | CN(Cc1cnc2nc(N)nc(N)c2n1)c1ccc(C(=O)N[C@@H](CCC(=O)O)C(=O)O)cc1 [MTX, methotrexate, reference compound] |  |  |  |  |  |  |  |  |  |  |  |  |  |  |  |  | effect of 1 mM folic acid on T. b. brucei growth inhibition ([6]; 1 mM folic acid, MTX alone or equimolar 4m + MTX): reduce the antiparasitic activity; EC50 ([6]; media supplemented with 9 μM folic acid, read-out: EC50 T. brucei, single agent): 35 ± 3 µM; EC50 [7]: 0.012 µM
10 | N=C(N)c1ccc(OCCCCCOc2ccc(C(=N)N)cc2)cc1 [Pentamidine, reference compound] |  |  |  |  |  |  |  |  |  |  |  |  |  |  |  |  | EC50 ([2]; read-out: EC50 T. b. brucei (reference compound, SYBR Green assay)): 0.0038 ± 0.00048 µM; EC50 ([6]; read-out: average EC50 T. brucei (reference drug, resazurin assay)): 0.00228 ± 0.00118 µM
